From patent US11548855B2, “Pyrazole amide compound and application thereof, and fungicide” (Shandong United Pesticide Industry Co. Ltd., priority 2017, dated 2023)
Where two headings read alike, the source gives them in different places.

How the values were obtained:
[1] = tested on: corn rust (Puccinia sorghi); assay: Greenhouse pot test, corn rust; assay type: in vivo; conditions: Puccinia sorghi, 168 h, read-out: Control effect (%) Corn rust; for pest or weed control at 6.25 µg/mL: 6.25 mg/L; for pest or weed control at 25 µg/mL: 25 mg/L; for pest or weed control at 100 µg/mL: 100 mg/L; for pest or weed control at 1.5625 µg/mL: 1.5625 mg/L; for pest or weed control at 3.125 µg/mL: 3.1250 mg/L
Description: (§1) Test method: each of the test compounds in Table 1 was dispensed to 5 wt % emulsifiable concentrate (hereinafter referred to as 5% EC). The greenhouse pot test was used in each experiment, and the effective concentrations of each compound were illustrated in Table 1.
Corn rust: two-three leaf stage potted corn seedling with uniform growth was selected and made foliar spray treatment with 5% EC, the blank control sprayed with clean water was additionally arranged, three replicates were carried out. After 24 h, the leaves of the host plants were inoculated with sporangial suspensions of the fungi corn rust (Puccinia sorghi), the plants were stored in humidity chamber (temperature: lighting 25° C., dark 20° C., relative humidity 95-100%) and then transferred to greenhouse (25±1° C.) 24 h after infection. After 7 days, the screening results were investigated according to the disease incidence condition of blank control.
(§2) The investigation method: “Guidelines for the field efficacy trials of pesticides” was adopted as the grading standard, and the control effect in a unit of % was calculated based on the disease index. Disease index=Σ(number of diseased leaves at each grade×relative grade value)×100/(total number of leaves×9); Control effect (%)=(disease index of control−disease index of treated)×100/disease index of control;
(§3) The compounds provided by the present disclosure and some control compounds were tested by the same methods in the Test example 1, except that the effective concentrations of the compounds in this Test example are shown in Table 2.

[2] = tested on: soybean rust (Phakopsora pacchyrhizi Sydow); assay: Greenhouse pot test, soybean rust; assay type: in vivo; conditions: Glycine max, 168 h, read-out: Control effect (%) Soybean rust; for pest or weed control at 6.25 µg/mL: 6.25 mg/L; for pest or weed control at 25 µg/mL: 25 mg/L; for pest or weed control at 100 µg/mL: 100 mg/L; for pest or weed control at 1.5625 µg/mL: 1.5625 mg/L; for pest or weed control at 3.125 µg/mL: 3.1250 mg/L
Description: as §1
Soybean rust: two-leaf stage potted soybean seedling with uniform growth was selected and made foliar spray treatment with 5% EC, the blank control sprayed with clean water was additionally arranged, three replicates were carried out. After 24 h, the leaves of the host plants were inoculated with sporangial suspensions of the fungi soybean rust (Phakopsora pacchyrhizi Sydow), the plants were stored in humidity chamber (temperature 20-25° C., relative humidity>95%) and then transferred to greenhouse (25±1° C.) 8-16 h after infection. After 7 days, the screening results were investigated according to the disease incidence condition of blank control.
as §2, §3

[3] = tested on: wheat powdery mildew (Erysiphe graminis); assay: Greenhouse pot test, wheat powdery mildew; assay type: in vivo; conditions: Blumeria graminis, 168 h, read-out: Control effect (%) Wheat powdery mildew; for pest or weed control at 6.25 µg/mL: 6.25 mg/L; for pest or weed control at 25 µg/mL: 25 mg/L; for pest or weed control at 100 µg/mL: 100 mg/L; for pest or weed control at 1.5625 µg/mL: 1.5625 mg/L; for pest or weed control at 3.125 µg/mL: 3.1250 mg/L
Source text: as §1
Wheat powdery mildew: two-leaf stage potted wheat seedling with uniform growth was selected and made foliar spray treatment with 5% EC, the blank control sprayed with clean water was additionally arranged, three replicates were carried out. After 24 h, the leaves of the host plants were inoculated by shake-down method with sporangial suspensions of the fungi wheat powdery mildew (Erysiphe graminis), the plants were stored in a greenhouse (25±1° C.). After 7 days, the screening results were investigated according to the disease incidence condition of blank control.
as §2, §3

cucumber powdery mildew = assay: Greenhouse pot test, cucumber powdery mildew; assay type: in vivo; conditions: for pest or weed control at 6.25 µg/mL / pest or weed control at 25 µg/mL / pest or weed control at 100 µg/mL: Cucumis sativus, 192 h, read-out: Control effect (%) Cucumber powdery mildew
Description: as §1
Cucumber powdery mildew: cucumber seedling in a true leaf period with uniform growth was selected, and dried in the shade for 24 h after spray treatment. Fresh cucumber powdery mildew spores on the cucumber leaves were collected and washed, and filtered through a double gauze to prepare a spores suspension with concentration of about 100,000/mL, then spray inoculation was applied. The test materials inoculated were moved into a greenhouse (lighting 21-23° C.), after 8 days, the grading investigation was carried out according to the disease incidence condition of blank control, and the control effect in a unit of % was calculated according to disease index.
as §2, §3

[4] = tested on: rice sheath blight fungi (Rhizoctonia solami); assay: Greenhouse pot test, rice sheath blight; assay type: in vivo
Description: as §3
In addition, the test method for rice sheath blight as following steps:
The potted rice seedling with uniform growth was selected, and dried in the shade for 24 h after spray treatment, then inoculated 3 blocks of 0.25 cm^2 rice sheath blight fungi (Rhizoctonia solami) at the base of seedling by clamp inoculation bacterium block method. The test materials inoculated were moved into greenhouse (temperature: lighting 28° C., dark 25° C., relative humidity 95%), after 7 days, investigate 5 leaves of per block treatment, the grading investigation was carried out according to the disease incidence condition of sheaths and leaves of rice, “Guidelines for the field efficacy trials of pesticides” was adopted as the grading standard, the disease index was calculated according to the grading standard, and the control effect in a unit of % was calculated according to disease index.

soybean rust = assay: Field trial, soybean rust; assay type: in vivo, Phakopsora pacchyrhizi Sydow; conditions: dosage 50 mg/L, sprayed 2 times
Description: III. The Soybean Rust Test Method:
Spray method: Stein and leaf spraying (Applicator: Xinkangda lithium battery electric sprayer).
Test crops: soybean (cultivars: Glycine max(L) Merr)
The test was carried out in Shenyang, the test field was loam with rich organic matters and normal management of fertilizer and water, and no other pesticide was applied during the test.
The arrangement of the test plot was random block permutation; the area of the test plot: 25 m^2; repeat times: 3 times; spray time and frequency: 2 times on Aug. 11, 2018 and Aug. 21, 2018 respectively. Spray dosage: each treatment was repeated 3 times, the total water consumption was 8 L. No other pesticide was applied during the test. […] 15-20 days after the second spray treatment, the control effect was investigated.
The incidence of disease spots in each plot was investigated by diagonal selecting 5 samples/plot and 20 plants/samples, 10 leaves/plant was surveyed.
The grading standard of crop disease was as follows:
Grade 0: no leaf-spot area;
Grade 1: the ratio of leaf-spot area to leaf area is less than 5%;
Grade 3: the ratio of leaf-spot area to leaf area is between 6-25%;
Grade 5: the ratio of leaf-spot area to leaf area is between 26-50%;
Grade 7: the ratio of leaf-spot area to leaf area is between 51-75%;
Grade 9: the ratio of leaf-spot area to leaf area is between 76-100%;
According to the relevant content of the “Guidelines for the field efficacy trials of pesticides of the People's Republic of China (PRC)”, the disease index was calculated according to the grading standard, and the control effect in a unit of % was calculated based on the disease index, and the test data of significance analysis was performed by using DPS evaluation system (DMRT).

Structure (SMILES)	pest or weed control at 6.25 µg/mL [1] [%]	pest or weed control at 25 µg/mL [1] [%]	pest or weed control at 100 µg/mL [1] [%]	pest or weed control at 6.25 µg/mL [2] [%]	pest or weed control at 25 µg/mL [2] [%]	pest or weed control at 100 µg/mL [2] [%]	pest or weed control at 6.25 µg/mL [3] [%]	pest or weed control at 25 µg/mL [3] [%]	pest or weed control at 100 µg/mL [3] [%]	pest or weed control at 6.25 µg/mL (cucumber powdery mildew; greenhouse pot, 6.25 mg/L) [%]	pest or weed control at 25 µg/mL (cucumber powdery mildew; greenhouse pot, 25 mg/L) [%]	pest or weed control at 100 µg/mL (cucumber powdery mildew; greenhouse pot, 100 mg/L) [%]	other results
Cn1nc(C(F)F)c(C(=O)Nc2ccccc2Oc2ccc(C(F)(F)F)cc2I)c1F [Compound 3]	75	100	100	85	100	100	65	80	80	45	70	95	–
Fc1ccc([C@]2(Cn3cncn3)O[C@H]2c2ccccc2Cl)cc1 (racemic) [Epoxiconazole]	–	–	–	–	–	–	–	–	–	–	–	–	Control effect (%) Rice sheath blight ([4]; 0.625 mg/L): 30%; Control effect (%) Rice sheath blight ([4]; 2.5 mg/L): 70%; Control effect (%) Rice sheath blight ([4]; 10 mg/L): 100%
Cn1nc(C(F)F)c(C(=O)Nc2ccccc2Oc2ccc(C(F)(F)F)cc2Br)c1F [Compound 2]	98	100	100	96	100	100	70	75	85	45	55	88	–
CO/C=C(/C(=O)OC)c1ccccc1Oc1cc(Oc2ccccc2C#N)ncn1 [Azoxystrobin]	–	–	–	–	–	–	–	–	–	–	–	–	Control effect (%) (soybean rust): 84.62%; Control effect (%) Cucumber powdery mildew (cucumber powdery mildew; greenhouse pot, 100 mg/L): 0%; Control effect (%) Cucumber powdery mildew (cucumber powdery mildew; greenhouse pot, 400 mg/L): 30%
CC1COC(Cn2cncn2)(c2ccc(Oc3ccc(Cl)cc3)cc2Cl)O1 (stereo not drawn) [Difenoconazole]	–	–	–	–	–	–	–	–	–	–	–	80	–
Cn1cc(C(=O)Nc2ccccc2Oc2cc(C(F)(F)F)ccc2C(F)(F)F)c(C(F)F)n1 [Compound 5]	70	75	85	95	98	100	10	40	50	–	–	–	–
Cn1cc(C(=O)Nc2ccccc2Oc2ccc(Cl)cc2Cl)c(C(F)F)n1 [Compound 7]	90	95	100	96	98	100	60	75	90	30	60	89	pest or weed control at 1.5625 µg/mL [1]: 50%; pest or weed control at 3.125 µg/mL [1]: 60%; pest or weed control at 1.5625 µg/mL [2]: 90%; pest or weed control at 3.125 µg/mL [2]: 100%; pest or weed control at 1.5625 µg/mL [3]: 0%; pest or weed control at 3.125 µg/mL [3]: 50%
Cn1nc(C(F)F)c(C(=O)Nc2ccccc2Oc2ccc(C(F)(F)F)cc2C(F)(F)F)c1F [Compound 6]	98	100	100	90	100	100	85	90	92	50	75	98	–
CCCCc1c(C)nc(NCC)[nH]c1=O [Ethirimol]	–	–	–	–	–	–	–	–	–	–	–	–	pest or weed control at 100 µg/mL (cucumber powdery mildew): 100%
Cn1cc(C(=O)Nc2ccccc2Oc2ccc(C(F)(F)F)cc2Cl)c(C(F)F)n1 [Compound 8]	95	99	100	99	100	100	65	75	94	40	60	95	pest or weed control at 1.5625 µg/mL [1]: 85%; pest or weed control at 3.125 µg/mL [1]: 98%; pest or weed control at 1.5625 µg/mL [2]: 98%; pest or weed control at 3.125 µg/mL [2]: 100%; pest or weed control at 1.5625 µg/mL [3]: 70%; pest or weed control at 3.125 µg/mL [3]: 90%
Cn1cc(C(=O)Nc2ccccc2-c2cc(F)c(F)c(F)c2)c(C(F)F)n1 [Fluxapyroxad]	–	–	–	–	–	–	–	–	–	–	–	–	Control effect (%) Cucumber powdery mildew (cucumber powdery mildew; greenhouse pot, 1.5625 mg/L): 55%; Control effect (%) Cucumber powdery mildew (cucumber powdery mildew; greenhouse pot, 6.25 mg/L): 95%; Control effect (%) Cucumber powdery mildew (cucumber powdery mildew; greenhouse pot, 25 mg/L): 100%; Control effect (%) Cucumber powdery mildew (cucumber powdery mildew; greenhouse pot, 100 mg/L): 100%
